Test system: SW480 cells
Assay: Illumina microarray gene expression analysis
Type: cell-based
Protocol: A microarray analysis using an Illumina® array was performed in triplicate to investigate differential gene expression in cells treated with a Wnt pathway inhibitor. […] In vitro transcription reactions were incubated overnight (14 hr). Labeled cRNA was hybridized to Illumina® Human-6 v3 BeadChips (Illumina, San Diego, Calif.) at 58° C. overnight, according to the Illumina® Whole-Genome Gene Expression Protocol for BeadStation (Doc. #11226030.rev.C, Illumina Inc.). The hybridized BeadChip was stained with streptavidin-Cy3 (Amersham™, PA43001) for visualization and scanned with an Illumina® BeadArray Reader. The scanned images were imported into BeadStudio 3.1.3.0 (Illumina Inc) for extraction and quality control. A criterion of 0.5-fold change in expression was applied to the analysis. […] A list of differentially expressed genes of interest is given below in tables 1 and 2. […] Many known Wnt target genes (column 3) were influenced in treated cells. Some genes were influenced that are also affected in Ls174T colorectal cancer cells expressing an inducible dominant negative form of TCF-4 (column 4) (van de Wetering et al., Mol. Cell. Biol. (2008) 28(8), p. 2732-44). Other influenced genes that are important for cell cycle control and other genes correlated to regulated canonical Wnt signaling are also shown. The degree of modulation (column 5) is an indication of the degree of change between the non-treated and compound No. 1 treated samples.

COc1ccc(-n2c(SCc3nc(-c4ccc(C)cc4)no3)nnc2-c2ccncc2)cc1 [Compound 1]
Degree of modulation: CCAAT/enhancer binding protein (C/EBP), delta (x at 10 μM and 25 μM): − (moderate down-regulation (log^2 ratio of between −0.5 and −1.0))
Degree of modulation: Kruppel-like factor 4 (gut) (x at 10 μM and 25 μM): + (moderate up-regulation (log^2 ratio of between 0.5 and 1.0))
Degree of modulation: Kruppel-like factor 6 (x at 10 μM and 25 μM): ++ (strong up-regulation (log^2 ratio of between 1.0 and 1.5))
Degree of modulation: LY6/PLAUR domain containing 5 (x at 10 μM and 25 μM): −−− (very strong down-regulation (log^2 ratio of between −1.5 and −2))
Degree of modulation: LY6/PLAUR domain containing 6B (x at 10 μM and 25 μM): ++ (strong up-regulation (log^2 ratio of between 1.0 and 1.5))
Degree of modulation: SPANXA1 (x at 10 μM and 25 μM): −−− (very strong down-regulation (log^2 ratio of between −1.5 and −2))
Degree of modulation: SPANXB2 (x at 10 μM and 25 μM): −−− (very strong down-regulation (log^2 ratio of between −1.5 and −2))
Degree of modulation: SPANXC (x at 10 μM and 25 μM): −−− (very strong down-regulation (log^2 ratio of between −1.5 and −2))
Degree of modulation: SPANXE (x at 10 μM and 25 μM): −−− (very strong down-regulation (log^2 ratio of between −1.5 and −2))
Degree of modulation: SRY (sex determining region Y)-box 18 (x at 10 μM and 25 μM): − (moderate down-regulation (log^2 ratio of between −0.5 and −1.0))
Degree of modulation: TEA domain family member 4 (x at 10 μM and 25 μM): − (moderate down-regulation (log^2 ratio of between −0.5 and −1.0))
Degree of modulation: WNT1 inducible signaling pathway protein 3 (x at 10 μM and 25 μM): + (moderate up-regulation (log^2 ratio of between 0.5 and 1.0))
Degree of modulation: alkaline phosphatase, liver/bone/kidney (x at 10 μM and 25 μM): − (moderate down-regulation (log^2 ratio of between −0.5 and −1.0))
Degree of modulation: axin 2 (x at 10 μM and 25 μM): − (moderate down-regulation (log^2 ratio of between −0.5 and −1.0))
Degree of modulation: dickkopf homolog 1 (Xenopus laevis) (x at 10 μM and 25 μM): −− (strong down-regulation (log^2 ratio of between −1.0 and −1.5))
Degree of modulation: frizzled homolog 4 (Drosophila) (x at 10 μM and 25 μM): − (moderate down-regulation (log^2 ratio of between −0.5 and −1.0))
Degree of modulation: homeobox B2 (x at 10 μM and 25 μM): − (moderate down-regulation (log^2 ratio of between −0.5 and −1.0))
Degree of modulation: homeobox B5 (x at 10 μM and 25 μM): − (moderate down-regulation (log^2 ratio of between −0.5 and −1.0))
Degree of modulation: homeobox B7 (x at 10 μM and 25 μM): − (moderate down-regulation (log^2 ratio of between −0.5 and −1.0))
Degree of modulation: inhibitor of DNA binding 2, dominant negative helix-loop-helix protein (x at 10 μM and 25 μM): −− (strong down-regulation (log^2 ratio of between −1.0 and −1.5))
Degree of modulation: mitogen-activated protein kinase kinase 3 (x at 10 μM and 25 μM): + (moderate up-regulation (log^2 ratio of between 0.5 and 1.0))
Degree of modulation: naked cuticle homolog 1 (Drosophila) (x at 10 μM and 25 μM): − (moderate down-regulation (log^2 ratio of between −0.5 and −1.0))
Degree of modulation: peroxisome proliferator-activated receptor gamma (x at 10 μM and 25 μM): ++ (strong up-regulation (log^2 ratio of between 1.0 and 1.5))
Degree of modulation: prickle homolog 2 (Drosophila) (x at 10 μM and 25 μM): − (moderate down-regulation (log^2 ratio of between −0.5 and −1.0))
Degree of modulation: FYN oncogene related to SRC, FGR, YES (x at 10 μM only): + (moderate up-regulation (log^2 ratio of between 0.5 and 1.0))
Degree of modulation: T-cell lymphoma invasion and metastasis 1 (x at 10 μM only): + (moderate up-regulation (log^2 ratio of between 0.5 and 1.0))
Degree of modulation: catenin (cadherin-associated protein), alpha-like 1 (x at 10 μM only): − (moderate down-regulation (log^2 ratio of between −0.5 and −1.0))
Degree of modulation: gastrin (x at 10 μM only): − (moderate down-regulation (log^2 ratio of between −0.5 and −1.0))
Degree of modulation: low density lipoprotein receptor-related protein 5 (x at 10 μM only): + (moderate up-regulation (log^2 ratio of between 0.5 and 1.0))
Degree of modulation: mitogen-activated protein kinase kinase kinase 1 (x at 10 μM only): + (moderate up-regulation (log^2 ratio of between 0.5 and 1.0))
Degree of modulation: notum pectinacetylesterase homolog (Drosophila) (x at 10 μM only): ++ (strong up-regulation (log^2 ratio of between 1.0 and 1.5))
Degree of modulation: secreted frizzled-related protein 5 (x at 10 μM only): + (moderate up-regulation (log^2 ratio of between 0.5 and 1.0))
Degree of modulation: slowmo homolog 1 (Drosophila) (x at 10 μM only): − (moderate down-regulation (log^2 ratio of between −0.5 and −1.0))
Degree of modulation: transmembrane 4 L six family member 5 (x at 10 μM only): ++ (strong up-regulation (log^2 ratio of between 1.0 and 1.5))
Degree of modulation: A kinase (PRKA) anchor protein 1 (x at 25 μM only): + (moderate up-regulation (log^2 ratio of between 0.5 and 1.0))
Degree of modulation: CD44 molecule (Indian blood group) (x at 25 μM only): + (moderate up-regulation (log^2 ratio of between 0.5 and 1.0))
Degree of modulation: FOS-like antigen 1 (x at 25 μM only): + (moderate up-regulation (log^2 ratio of between 0.5 and 1.0))
Degree of modulation: PDZ and LIM domain 1 (x at 25 μM only): − (moderate down-regulation (log^2 ratio of between −0.5 and −1.0))
Degree of modulation: Sp5 transcription factor (x at 25 μM only): − (moderate down-regulation (log^2 ratio of between −0.5 and −1.0))
Degree of modulation: adenomatosis polyposis coli down-regulated 1 (x at 25 μM only): −− (strong down-regulation (log^2 ratio of between −1.0 and −1.5))
Degree of modulation: baculoviral IAP repeat-containing 5 (x at 25 μM only): − (moderate down-regulation (log^2 ratio of between −0.5 and −1.0))
Degree of modulation: bone morphogenetic protein 1 (x at 25 μM only): + (moderate up-regulation (log^2 ratio of between 0.5 and 1.0))
Degree of modulation: bone morphogenetic protein 7 (x at 25 μM only): − (moderate down-regulation (log^2 ratio of between −0.5 and −1.0))
Degree of modulation: c-abl oncogene 1, receptor tyrosine kinase (x at 25 μM only): − (moderate down-regulation (log^2 ratio of between −0.5 and −1.0))
Degree of modulation: cell division cycle 25 homolog C (S. pombe) (x at 25 μM only): − (moderate down-regulation (log^2 ratio of between −0.5 and −1.0))
Degree of modulation: cell division cycle associated 8 (x at 25 μM only): − (moderate down-regulation (log^2 ratio of between −0.5 and −1.0))

— patent US8883827B2, “Azole derivatives as WTN pathway inhibitors” (Oslo University Hospital HF, priority 2009, dated 2014)
